A short description of data set [1]: Photofading under iodine-tungsten lamp irradiation in Tris-HCl buffer. The data set is classed as physicochemical. The following applies: 5×10^−6 M in Tris-HCl 10 mM pH 7.4; 500 W iodine-tungsten lamp, 20 cm; after 6 h of radiation. The method, then: 5×10^−6M solutions of compounds C, D, E and reference compound M1 in Tris-HCl (10 mM, pH=7.4, same below) buffer were be sealed into the cuvettes respectively. To absorb short wavelength light (<400 nm), a trap of glass containing 50 g/L NaNO2 was set up between the cells and the lamp. In the other hand, NaNO2 solution can be used as a cold trap to keep the sample at room temperature. After the absorption of samples were monitored, solutions of the samples were irradiated with a 500 W iodine-tungsten lamp. The distance between the cells and the lamp was 20 cm. The irreversible bleaching of the dyes at the absorption peak was monitored as a function of time at 1 hour intervals. The equipment used is a UV-Vis spectrophotometer Lambda 8453.

Data set [2] relates to CT DNA. Nature of the data set: Absorption and fluorescence emission spectra in the absence and presence of DNA in buffer. The data set is classed as physicochemical. The following applies: 2 μM in Tris-HCl buffer, absence and presence of saturated CT DNA; for maximum emission wavelength: excitation 550 nm. The procedure:
2 μM solutions of compounds C, D, and E in Tris-HCl (10 mM, pH=7.4, same below) buffer were be added into the cuvettes and determined its absorption respectively. The exited wavelength of the fluorescence spectra was 550 nm for all compounds. A saturated amount of CT DNA was added into the above solution, then the solution was determined its absorption respectively. The exited wavelength of the fluorescence spectra was 550 nm for all compounds. The equipments used are a UV-Vis spectrophotometer (Hp8453) and a spectrofluorophotometer (PTI-700). FIGS. 2, 3, and 4 are the absorption and fluorescence emission spectra of compounds C, D, and E in the absence and presence of DNA respectively in buffer solution respectively. […] Therefore, in confocal fluorescence image tests of compounds, the exited wavelength is selected 559 nm and the collected emission wavelength was 575-625 nm.

Data set [3] has as its system CT DNA. Nature of the data set: Fluorescence quantum yield in the presence of DNA. The data set is classed as physicochemical. The settings on record: 1 μM in Tris-HCl buffer, saturated DNA; Rhodamine B as standard; mean of triplicate. The method, then:
A saturated amount of CT DNA was added into the 1 μM compound C solution in Tris-HCl buffer to keep a maximum absorbance less than 0.1 as determined by a UV-Vis Spectrophotometer. Fluorescence intensities are measured at selected excitation wavelengths of 545 nm, 550 nm and 555 nm, respectively. For each compound, the determination is made in triplicate, the fluorescence quantum yield of each determination is calculated, and the mean value is taken. Using Rhodamine B as the standard (ΦF=0.97, methanol, 15° C.), the calculated fluorescence quantum yields in buffer solution of compound C in the presence of DNA is 0.73. The equipments used are a UV-Vis spectrophotometer (Hp8453) and a spectrofluorophotometer (PTI-700).
A saturated amount of DNA was added into the 1 μM reference compound M1 solution in Tris-HCl buffer to keep a maximum absorbance less than 0.1 as determined by a UV-Vis Spectrophotometer. Fluorescence intensities are measured at selected excitation wavelengths of 585 nm, 590 nm and 595 nm, respectively. For each compound, the determination is made in triplicate, the fluorescence quantum yield of each determination is calculated, and the mean value is taken. Using Rhodamine B as the standard (ΦF=0.97, methanol, 15° C.), the calculated fluorescence quantum yields in buffer solution of reference compound M1 in the presence of DNA is 0.16. […]

The test system of data set [4] is living cells. Nature of the data set: MTT cytotoxicity assay in living cells. Format: cell-based. The following applies: 6 h, serial concentrations 0, 1, 3, 5 μM. The method, then:
The Compounds C, D, E and reference compound M1 at serial concentrations (0, 1, 3, and 5 μM) were added to cells counted in a confocal microscope dish for 6 h. Then MTT tetrazolium solution (100 μL of 0.5 mg/ml in PBS) was added to each well, and the cells further incubated for 2 h. Excess MTT tetrazolium solution was then carefully removed and the colored formazan was dissolved in dimethyl sulfoxide (DMSO). The absorbance was measured at 490 nm using a microplate reader to measure the toxicity of compound.

Data set [5] relates to MCF7 cells. Nature of the data set: Colocalization fluorescence imaging with commercial nucleic acid stain SYTO9. The data set is classed as cell-based, human. The settings on record: compound E 2.0 μM 45 min after SYTO9 3.0 μM 45 min; λex=559 nm, λem=575-625 nm. The method, then: The cells were cultured as shown example 10, were first cultured with 3.0 μM of available commercial nucleic acid stain SYTO9 for 45 min, and then washed with PBS three times. Cells were then incubated with compound E (2.0 μM) for 45 min, and then washed with PBS three times. After replacement of DEME medium, cells were imaged using confocal fluorescence microscope.
FIG. 6a is the fluorescence image of SYTO 9 (λex=488 nm, λem=500 nm to 550 nm) and FIG. 6b is the fluorescence image of compound E (λex=559 nm, λem=575 nm to 625 nm). […] The equipment used is an Olympus FV1000 confocal laser scanning microscope.

For data set [6], the system named is CT DNA. The settings on record: methanol, 15° C.; cited from earlier work.
Data set [7] relates to MCF7 cells. Nature of the data set: Fluorescence imaging of live cells stained with dye. The following applies: 45 min, compound D 2 μM, M1 3 μM, confocal microscopy. The data set is classed as cell-based, human. The procedure: MCF7 cells (human breast adenocarcinoma cell line) were cultured in DEME medium supplemented with 10% fetal bovine serum at 37° C. in an atmosphere containing 5% CO2 for 24 h. For live cell imaging, compound D (2 μM) or reference compound M1 (3 μM) was added to cells for 45 min and washed with PBS (phosphate-buffered saline) three times. After replacement of the medium, cells were imaged using a confocal fluorescence microscope. […] The confocal laser scanning microscope is Olympus FV1000.

Each structure is given as a SMILES string.

As to `CC[n+]1ccc(/C=C/C(C#N)=C2/Sc3ccccc3N2C)c2ccccc21.[I-]` [Compound C], the “optical density remaining after radiation (photostability)” value (“optical density remaining” for short) in data set [1] came out at 90%. Besides, in data set [2], the maximum absorption wavelength entry is recorded as “about 545 nm” and the maximum emission wavelength entry is given as “about 610 nm”. For the same molecule, the “fluorescence quantum yield in the presence of DNA” value in data set [3] was found to be 0.73. Further, in data set [4], the “cytotoxicity in high concentration relative to M1” value is “less cytotoxic than reference compound M1” and the “cytotoxicity in low concentrations” value is reported as “low cytotoxicity”.

With `C=CCCN1/C(=C(C#N)\C=C\c2cc[n+](CC)c3cc(OC)ccc23)Sc2ccccc21.[I-]` [Compound E], the “optical density remaining” value in data set [1] is recorded as 90%. Besides, in data set [2], the maximum absorption wavelength entry is given as “about 545 nm” and the maximum emission wavelength result is listed as “about 610 nm”. In addition, in data set [5], the “subcellular regions stained (colocalization with SYTO9)” value was “nucleus and nucleolus”.

For the molecule `CCN(CC)c1ccc2c(-c3ccccc3C(=O)O)c3ccc(=[N+](CC)CC)cc-3oc2c1.[Cl-]` [Rhodamine B], the “fluorescence quantum yield of standard (ΦF)” value in data set [6] was 0.97.

Take `CC[n+]1ccc(/C=C/C=C2/Sc3ccccc3N2C)c2ccccc21.[I-]` [Compound M1, reference compound]: in data set [1], the “optical density remaining” value is ~0%. Further, the “fluorescence quantum yield in the presence of DNA” value in data set [3] was 0.16. For the same molecule, the “staining pattern in live cells” value in data set [7] is listed as “clear nucleolar staining as well as faint nucleus staining”. In data set [4], the “cytotoxicity in low concentrations” value is given as “low cytotoxicity”.

As for `CN1/C(=C(C#N)\C=C\c2cc[n+](CCO)c3ccccc23)Sc2cc(Cl)ccc21.Cl` [Compound D], the “optical density remaining” value in data set [1] is listed as 90%. Further, in data set [2], the maximum absorption wavelength entry is recorded as “about 545 nm” and the maximum emission wavelength entry is on record as “about 610 nm”. In addition, in data set [7], the “staining pattern in live cells” value was “clear nucleolar staining as well as faint nucleus staining”. Moreover, in data set [4], the “cytotoxicity in high concentration relative to M1” value is “less cytotoxic than reference compound M1” and the “cytotoxicity in low concentrations” value was “low cytotoxicity”.

(Values after patent publication US10029996B2, “Class of cyano-substituted asymmetric cyanine dyes, synthesizing method and application thereof” (DALIAN UNIVERSITY OF TECHNOLOGY, priority 2013, dated 2018).)
